Calls of active or inactive are those of the source.
Experiments:
[1] = biological target: Guanine nucleotide-binding protein G(i) subunit alpha-2 (Homo sapiens, UniProt P04899)
[2] = biological target: T1, Dual specificity mitogen-activated protein kinase kinase 4 (Homo sapiens, UniProt P45985)
T1 sequence (P45985 whole entry): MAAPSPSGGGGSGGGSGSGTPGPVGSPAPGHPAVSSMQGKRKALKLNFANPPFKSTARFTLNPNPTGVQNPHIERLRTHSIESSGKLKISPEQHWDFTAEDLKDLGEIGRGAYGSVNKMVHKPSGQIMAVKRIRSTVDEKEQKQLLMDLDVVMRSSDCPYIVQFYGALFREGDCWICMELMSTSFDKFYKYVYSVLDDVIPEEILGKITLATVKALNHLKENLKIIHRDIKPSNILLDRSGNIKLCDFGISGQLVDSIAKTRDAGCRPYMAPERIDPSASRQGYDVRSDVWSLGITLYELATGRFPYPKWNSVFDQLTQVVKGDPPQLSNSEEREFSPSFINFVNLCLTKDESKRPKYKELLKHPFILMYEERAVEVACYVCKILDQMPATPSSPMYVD

[3] = biological target: Serine/threonine-protein kinase N3 (Homo sapiens, UniProt Q6P5Z2)
Chain of Serine/threonine-protein kinase N3 (Q6P5Z2 whole entry): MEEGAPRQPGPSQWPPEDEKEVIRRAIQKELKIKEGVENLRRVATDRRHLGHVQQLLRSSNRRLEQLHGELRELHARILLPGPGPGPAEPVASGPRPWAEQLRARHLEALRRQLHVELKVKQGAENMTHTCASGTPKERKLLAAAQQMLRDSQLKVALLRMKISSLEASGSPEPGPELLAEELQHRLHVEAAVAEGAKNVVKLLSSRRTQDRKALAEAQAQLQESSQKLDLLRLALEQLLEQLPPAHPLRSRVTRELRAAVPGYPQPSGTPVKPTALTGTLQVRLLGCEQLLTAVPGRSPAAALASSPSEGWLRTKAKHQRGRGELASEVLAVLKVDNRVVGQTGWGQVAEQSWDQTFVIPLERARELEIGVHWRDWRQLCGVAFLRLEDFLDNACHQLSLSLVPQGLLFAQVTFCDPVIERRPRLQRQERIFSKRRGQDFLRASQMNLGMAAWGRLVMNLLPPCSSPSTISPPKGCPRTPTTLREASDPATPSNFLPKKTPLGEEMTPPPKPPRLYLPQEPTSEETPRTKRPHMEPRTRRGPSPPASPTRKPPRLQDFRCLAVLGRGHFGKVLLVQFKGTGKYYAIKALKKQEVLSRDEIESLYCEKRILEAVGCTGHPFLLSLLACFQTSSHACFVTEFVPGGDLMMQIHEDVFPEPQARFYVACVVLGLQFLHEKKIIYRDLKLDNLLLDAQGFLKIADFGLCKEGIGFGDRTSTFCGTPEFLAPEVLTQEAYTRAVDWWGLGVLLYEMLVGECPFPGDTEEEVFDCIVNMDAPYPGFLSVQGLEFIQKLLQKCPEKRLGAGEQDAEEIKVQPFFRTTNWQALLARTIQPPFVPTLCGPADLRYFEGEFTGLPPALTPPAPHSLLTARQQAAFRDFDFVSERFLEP

[4] = biological target: T2, UMP-CMP kinase (Homo sapiens, UniProt P30085)
T2 sequence (P30085 whole entry): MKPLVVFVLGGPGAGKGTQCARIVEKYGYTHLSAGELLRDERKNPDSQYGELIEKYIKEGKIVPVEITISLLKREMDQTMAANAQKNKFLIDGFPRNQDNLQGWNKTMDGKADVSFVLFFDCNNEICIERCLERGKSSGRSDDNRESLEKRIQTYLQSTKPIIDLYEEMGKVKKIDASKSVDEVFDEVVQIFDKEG

[5] = biological target: MAP kinase-activated protein kinase 3 (Homo sapiens, UniProt Q16644)
Chain of MAP kinase-activated protein kinase 3 (Q16644 whole entry): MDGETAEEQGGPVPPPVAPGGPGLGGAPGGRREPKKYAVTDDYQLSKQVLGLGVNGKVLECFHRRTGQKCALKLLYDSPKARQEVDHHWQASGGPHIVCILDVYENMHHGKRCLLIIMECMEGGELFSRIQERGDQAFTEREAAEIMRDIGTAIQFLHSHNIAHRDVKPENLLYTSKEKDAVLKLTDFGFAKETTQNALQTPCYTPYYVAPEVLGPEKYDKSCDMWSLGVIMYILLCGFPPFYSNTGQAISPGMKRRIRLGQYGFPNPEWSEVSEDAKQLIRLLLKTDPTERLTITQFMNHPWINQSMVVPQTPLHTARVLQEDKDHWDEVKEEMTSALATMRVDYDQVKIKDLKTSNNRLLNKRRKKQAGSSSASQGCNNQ

[6] = biological target: Mitogen-activated protein kinase 14 (Homo sapiens, UniProt Q16539)
Chain of Mitogen-activated protein kinase 14 (Q16539 whole entry): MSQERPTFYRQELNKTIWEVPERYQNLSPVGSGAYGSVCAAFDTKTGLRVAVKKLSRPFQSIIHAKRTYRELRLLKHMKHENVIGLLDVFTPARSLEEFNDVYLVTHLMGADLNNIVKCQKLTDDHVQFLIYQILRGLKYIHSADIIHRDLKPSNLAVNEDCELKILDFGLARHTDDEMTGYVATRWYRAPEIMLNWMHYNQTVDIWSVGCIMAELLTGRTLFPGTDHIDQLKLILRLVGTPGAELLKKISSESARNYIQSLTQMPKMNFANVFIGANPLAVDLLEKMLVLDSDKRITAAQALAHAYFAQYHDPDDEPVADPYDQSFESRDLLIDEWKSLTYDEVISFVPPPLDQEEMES

[7] = biological target: Tyrosine-protein kinase Fgr (Homo sapiens, UniProt P09769)
Chain of Tyrosine-protein kinase Fgr (P09769 whole entry): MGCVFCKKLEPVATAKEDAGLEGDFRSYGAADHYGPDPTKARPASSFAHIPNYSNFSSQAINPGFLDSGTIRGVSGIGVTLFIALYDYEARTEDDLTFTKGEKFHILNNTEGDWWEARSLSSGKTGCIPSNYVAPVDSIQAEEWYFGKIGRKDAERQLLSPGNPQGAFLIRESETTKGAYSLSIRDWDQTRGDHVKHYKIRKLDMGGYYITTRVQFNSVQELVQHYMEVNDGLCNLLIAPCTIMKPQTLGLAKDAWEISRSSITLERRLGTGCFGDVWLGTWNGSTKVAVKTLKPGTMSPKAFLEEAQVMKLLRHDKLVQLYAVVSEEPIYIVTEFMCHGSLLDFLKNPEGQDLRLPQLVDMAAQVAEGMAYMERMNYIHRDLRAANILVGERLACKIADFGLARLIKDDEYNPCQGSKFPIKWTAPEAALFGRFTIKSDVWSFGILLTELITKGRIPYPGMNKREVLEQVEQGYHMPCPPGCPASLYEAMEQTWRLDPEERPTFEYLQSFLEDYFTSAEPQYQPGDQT

[8] = biological target: Myosin-10 (Homo sapiens, UniProt P35580)
[9] = biological target: T3, ATP-dependent RNA helicase DHX30 (Homo sapiens, UniProt Q7L2E3)
T3 sequence (Q7L2E3 whole entry): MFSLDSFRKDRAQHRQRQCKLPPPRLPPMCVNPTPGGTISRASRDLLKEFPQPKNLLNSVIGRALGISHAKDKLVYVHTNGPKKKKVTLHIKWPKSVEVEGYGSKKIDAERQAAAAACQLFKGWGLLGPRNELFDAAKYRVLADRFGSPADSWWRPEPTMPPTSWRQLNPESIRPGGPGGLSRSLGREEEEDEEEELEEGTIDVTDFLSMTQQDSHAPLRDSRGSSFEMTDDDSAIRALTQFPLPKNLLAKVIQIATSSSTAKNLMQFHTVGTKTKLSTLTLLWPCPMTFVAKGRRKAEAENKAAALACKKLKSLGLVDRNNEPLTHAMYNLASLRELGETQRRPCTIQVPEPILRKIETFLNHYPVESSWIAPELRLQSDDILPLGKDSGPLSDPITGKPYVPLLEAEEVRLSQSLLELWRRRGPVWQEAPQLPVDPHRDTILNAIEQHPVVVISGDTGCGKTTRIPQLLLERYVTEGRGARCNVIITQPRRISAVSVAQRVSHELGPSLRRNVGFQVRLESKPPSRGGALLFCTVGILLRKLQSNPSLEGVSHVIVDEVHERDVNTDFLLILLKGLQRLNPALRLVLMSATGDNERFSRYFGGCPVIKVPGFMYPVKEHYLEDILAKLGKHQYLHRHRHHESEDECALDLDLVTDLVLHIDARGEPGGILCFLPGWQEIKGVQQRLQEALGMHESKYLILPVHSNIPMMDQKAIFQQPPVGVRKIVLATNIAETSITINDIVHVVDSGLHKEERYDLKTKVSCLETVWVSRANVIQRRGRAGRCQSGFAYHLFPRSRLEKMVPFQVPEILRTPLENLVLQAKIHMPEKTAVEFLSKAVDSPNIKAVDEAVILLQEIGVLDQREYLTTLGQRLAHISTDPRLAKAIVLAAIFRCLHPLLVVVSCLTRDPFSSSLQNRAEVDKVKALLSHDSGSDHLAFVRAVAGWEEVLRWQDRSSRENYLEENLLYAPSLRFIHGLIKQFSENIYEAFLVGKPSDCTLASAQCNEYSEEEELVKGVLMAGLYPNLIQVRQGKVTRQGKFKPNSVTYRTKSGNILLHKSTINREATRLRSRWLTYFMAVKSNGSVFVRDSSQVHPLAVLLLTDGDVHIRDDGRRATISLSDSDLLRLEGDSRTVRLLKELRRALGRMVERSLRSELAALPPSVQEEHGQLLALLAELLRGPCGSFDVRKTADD

[10] = biological target: Dual specificity tyrosine-phosphorylation-regulated kinase 1B (Homo sapiens, UniProt Q9Y463)
Chain of Dual specificity tyrosine-phosphorylation-regulated kinase 1B (Q9Y463 whole entry): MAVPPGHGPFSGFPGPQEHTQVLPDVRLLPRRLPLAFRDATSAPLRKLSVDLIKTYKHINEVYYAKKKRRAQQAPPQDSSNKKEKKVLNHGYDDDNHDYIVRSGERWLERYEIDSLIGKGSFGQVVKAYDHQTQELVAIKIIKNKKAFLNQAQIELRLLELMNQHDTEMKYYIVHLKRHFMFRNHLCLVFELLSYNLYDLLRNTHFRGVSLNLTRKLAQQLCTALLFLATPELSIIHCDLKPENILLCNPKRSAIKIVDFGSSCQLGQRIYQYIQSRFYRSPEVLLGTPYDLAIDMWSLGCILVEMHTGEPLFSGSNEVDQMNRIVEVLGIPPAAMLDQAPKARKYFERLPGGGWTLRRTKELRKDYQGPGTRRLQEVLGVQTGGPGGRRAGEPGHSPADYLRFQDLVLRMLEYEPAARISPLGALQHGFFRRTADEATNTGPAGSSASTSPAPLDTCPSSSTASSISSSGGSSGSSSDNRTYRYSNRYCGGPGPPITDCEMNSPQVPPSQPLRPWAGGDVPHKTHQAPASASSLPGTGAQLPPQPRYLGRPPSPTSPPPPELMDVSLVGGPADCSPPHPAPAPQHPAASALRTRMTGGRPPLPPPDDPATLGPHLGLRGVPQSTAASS

Measured: Kd
Note: in the data inactive means no Kd found up to 30 µM.

Chain of Guanine nucleotide-binding protein G(i) subunit alpha-2 (P04899 whole entry): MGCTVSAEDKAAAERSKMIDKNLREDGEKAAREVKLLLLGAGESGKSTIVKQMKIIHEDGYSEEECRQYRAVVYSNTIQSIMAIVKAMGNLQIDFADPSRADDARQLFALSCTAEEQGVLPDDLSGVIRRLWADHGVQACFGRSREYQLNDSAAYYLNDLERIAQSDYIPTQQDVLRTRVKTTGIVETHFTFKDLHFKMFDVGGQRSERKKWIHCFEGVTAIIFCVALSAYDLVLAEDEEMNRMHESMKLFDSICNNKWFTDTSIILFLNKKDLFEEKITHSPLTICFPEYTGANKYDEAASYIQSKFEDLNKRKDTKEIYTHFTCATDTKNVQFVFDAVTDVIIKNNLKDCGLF

CC(=O)Nc1cccc(-n2c(=O)n(C3CC3)c(=O)c3c(Nc4ccc(I)cc4F)n(C)c(=O)c(C)c32)c1 [TRAMETINIB]
inactive: [1] > 30 µM | [2] > 30 µM | [3] > 30 µM | [4] > 30 µM | [5] > 30 µM | [6] > 30 µM | [7] > 30 µM | [8] > 30 µM | [9] > 30 µM | [10] > 30 µM

O=C(O)[C@]1(Cc2cccc(Nc3nccs3)n2)CC[C@@H](Oc2cccc(Cl)c2F)CC1 [MK-5108]
inactive: [1] > 30 µM | [2] > 30 µM | [3] > 30 µM | [4] > 30 µM | [5] > 30 µM | [6] > 30 µM | [7] > 30 µM | [8] > 30 µM | [9] > 30 µM | [10] > 30 µM

CC[C@H](Nc1ncnc2[nH]cnc12)c1nc2cccc(F)c2c(=O)n1-c1ccccc1 [IDELALISIB]
inactive: [1] > 30 µM | [2] > 30 µM | [3] > 30 µM | [5] > 30 µM | [6] > 30 µM | [7] > 30 µM | [9] > 30 µM | [10] > 30 µM

Cc1cc(-c2cc(O)ccc2Cl)cc2nnc(Nc3ccc(OCCN4CCCC4)cc3)nc12
inactive: [3] > 30 µM | [4] > 30 µM | [5] > 30 µM | [6] > 30 µM | [7] > 30 µM | [8] > 30 µM | [9] > 30 µM | [10] > 30 µM
